Assay results reported in patent publication US20170247446A1, “TARGETING K-RAS-MEDIATED SIGNALING PATHWAYS AND MALIGNANCY BY ANTI-hLIF ANTIBODIES” (The Regents of the University of California, priority 2014, published 2017).

Test system: PANC2.03 subcutaneous tumors
Experiment: Drug sensitization assay, PANC2.03 subcutaneous tumors in nude mice
Assay type: in vivo
Method: FIG. 5. […] (B) 50,000 cells of PANC2.03 were subcutaneously injected into nude mice for the tumor initiation assay. The anti-LIF AB (clone D25.1.4) was given before the tumor inoculation at 10 mg/kg. The treatment was given three times a week. […] (C) In drug sensitization assay, 0.2×10^6 cells of PANC2.03 cells were first subcutaneously injected into nude mice. […] The mice were randomly separated into 4 different groups: control, Ab only, gemcitabine only, and combination. […] (D) Tumor volume changing curve in the PANC2.03 subcutaneous tumors with the treatment model of (C). […] Tumor proliferation rate=(Tumor vol on the later day−Tumor vol on the initial day)/Tumor vol on the initial day*100. […] The response to gemcitabine was analyzed in pancreatic cancer cells. […] The effects of LIF-neutralizing antibody were also tested in mouse models. […] In a drug sensitization assay, PANC2.03 cells were subcutaneously injected into nude mice to form tumors, then the mice were treated with anti-LIF antibody, gemcitabine, or a combination of anti-LIF antibody and gemcitabine.

## Nc1ccn([C@@H]2O[C@H](CO)[C@@H](O)C2(F)F)c(=O)n1 [gemcitabine]
0.2×10^6 PANC2.03 cells s.c., tumors formed within 14 days post-inoculation, then treatment, FIG. 5C
  complete regressions of tumors: did not lead to the tumor regressions
(Tumor vol on the later day−Tumor vol on the initial day)/Tumor vol on the initial day*100, FIG. 5E
  tumor proliferation rate: still had a positive growth rate
FIG. 5F
  fold change on tumor volumes: still had a positive growth rate
